Reference: PMC4935840, “Molecular basis of the remarkable species selectivity of an insecticidal sodium channel toxin from the African spider Augacephalus ezendami” (Scientific Reports, 2016)
“Also recorded” adds a separate entry of the source.

How the values were obtained:
[1] = system: German cockroaches (Blattella germanica); settings: cited from earlier work
Description: (§1) An ideal bioinsecticide would be specific for the targeted insect pest, without harming beneficial insects. Although most spiders are generalist predators that hunt many types of insect prey, some spider-venom peptides have been isolated that are specific to certain insect orders or even to certain species within an insect order. […] Another ex ...

[2] = system: American cockroaches (Periplaneta americana); settings: at much higher doses; cited from earlier work
Description: as §1

[3] = system: BgNaV1 over PaNaV1 channels; settings: cited from earlier work
Description: The selectivity of Ae1a for BgNaV1 over PaNaV1 channels is reminiscent of the selectivity reported for the insecticidal spider-venom peptide μ-DGTX-Dc1a (Dc1a) isolated from the American desert spider Diguetia canities. In order to explore the molecular basis of this species selectivity we examined the ability of Ae1a to inhibit the activity of a BgNaV1 channel containing two mutations that were previously reported to determine sensitivity to Dc1a[18].

[4] = system: NaV channel currents in dorsal unpaired median (DUM) neurons (PaNaV1); assay: Whole-cell patch-clamp of NaV channel currents in DUM neurons; type: cell-based, Periplaneta americana; settings: P. americana DUM neurons
Description: Figure 5 Effect of rAe1a on NaV channel currents in P. americana DUM neurons. (A) Representative traces showing the effect of 1 μM rAe1a on INa mediated by PaNaV1 in P. americana DUM neurons. Currents were evoked by depolarizations to −10 mV, from a holding potential of −90 mV (panel B), with black and red traces corresponding to the current before, and 5 min after, toxin application, respectively. (C) Time course of rAe1a actions on PaNaV1. Peak INa were recorded at a rate of 0.1 Hz before (black circles), and for 5 min during, application of 1 μM rAe1a (red circles) and normalized against maximal peak INa (−1/Imax; n = 3). (D) GNa-V relationships in P. americana DUM neurons. A voltage protocol with depolarisation steps from −90 mV to +40 mV in 10 mV increments (lower panel B) was used to generate families of INa. The normalized conductance-voltage (GNa-V) relationship (G/Gmax) is shown before (black circles) and after (red circles) a 5 min perfusion with 1 μM rAe1a (n = 4). […]
Ionic currents were recorded from DUM neurons in voltage-clamp mode using the whole-cell patch-clamp technique employing version 10.2 of the pCLAMP data acquisition system (Molecular Devices, Sunnyvale, CA, USA). […] Liquid junction potentials were calculated using JPCALC, and all data were compensated for these values. […] Peak current amplitude was analysed offline using AxoGraph X v1.5.3 (Molecular Devices). […]

[5] = system: sheep blowflies (Lucilia cuprina); assay: Insecticidal activity by injection into sheep blowflies (PD50); type: in vivo
Description: (§2) Figure 3 Insecticidal effects of Ae1a. (A) rAe1a was injected into blowflies (Lucilia cuprina) and paralytic effects were measured 0.5 and 1 h after injection. (B) rAe1a was injected into fruit flies (Drosophila melanogaster) and paralytic and lethal effects were measured at 3 h and 24 h post injection. (C) rAe1a and Hv1a were injected into the triatomine bug Rhodnius prolixus and lethality was measured 24 h after injection. PD50 and LD50 values were calculated as described previously.
rAe1a was dissolved in insect saline[45] and injected into the ventro-lateral thoracic region of adult sheep blowflies (L. cuprina; mass 26.8–29.7 mg) as described previously. A maximum of 2 μl was injected per fly using a 1.0 ml Terumo Insulin syringe with 29-gauge needle fitted to an Arnold hand micro-applicator (Burkard Manufacturing Co. Ltd., Rickmansworth, England). After injection, flies were individually housed in 2-ml tubes and paralytic effects determined after 0.5, 1 and 24 h. A total of three assays were performed, and for each assay nine doses of rAe1a (n = 10 flies per dose) and the appropriate control (insect saline; n = 20 flies each) were used. PD50 values were calculated as described.

[6] = system: triatomine bug Rhodnius prolixus; assay: Toxicity by injection into triatomine bugs; type: in vivo; settings: for activity against R. prolixus (in words): injection
Description: as §2
Toxicity against R. prolixus was measured using the method described by Luna et al.[49] with some modifications. Microinjection needles, made by pulling borosilicate glass capillaries with a needle puller (Narishige, PC-10, Japan), were fitted onto a Nanoject II auto injector (Drummond Scientific, Broomall, PA, USA). Ae1a, Hv1a, or PBS (n = 7–10 per dose, 138 nl volume) were injected into the thorax of second instar R. prolixus nymphs (average mass 1.4 mg) via articulation of prothoracic coxa. Synthetic Hv1a was kindly supplied by Vestaron Corporation (Kalamazoo, MI, USA). Three separate sets of experiments were performed for each compound. After injection, bugs were transferred to plastic cages and stored at 26 °C with 50% relative humidity. All bugs were checked at 24 h post-injection for signs of paralysis or lethality.

[7] = system: mutant BgNaV1 (H805Y/D812E); assay: Two-electrode voltage-clamp of mutant BgNaV1 (H805Y/D812E) in Xenopus oocytes; type: cell-based, Blattella germanica; settings: BgNaV1 H805Y/D812E versus wild-type BgNaV1
Description: (§3) Figure 4 Effect of rAe1a on BgNav1 and hNaV1.5. Left panels: Representative traces showing the effect of rAe1a (200 nM) on sodium currents mediated by (A) BgNaV1, (C) mutant BgNaV1 (H805Y/D812E), and (E) hNaV1.5 heterologously expressed in Xenopus oocytes. Currents were evoked by a depolarization to −15 mV, with black and red traces corresponding to the current before and after toxin application, respectively. Right panels: Effect of 200 nM rAe1a on normalized conductance-voltage (G–V) relationships (G/Gmax) and steady-state inactivation (SSI) relationships (I/Imax) for (B) BgNaV1, (D) mutant BgNaV1, and (F) hNaV1.5. […]
(§4) cRNA encoding BgNaV1 from Blattella germanica[50] and hNaV1.5 (Origene, Rockville, MD, USA) was synthesized using T7 polymerase (mMessage mMachine kit, Life Technologies, USA) after linearizing the fully-sequenced DNA. […] Oocytes were incubated at 17 °C in 96 mM NaCl, 2 mM KCl, 5 mM HEPES, 1 mM MgCl2 and 1.8 mM CaCl2, 50 μg/ml gentamycin, pH 7.6 with NaOH, and currents were measured 1–2 days after cRNA injection using the two-electrode voltage-clamp recording technique (OC-725C, Warner Instruments, Hamden, CT, USA) with a 150-μl recording chamber. […] After addition of rAe1a to the recording chamber, equilibration between toxin and channel was monitored using weak depolarizations elicited at 5-s intervals. […]

[8] = system: diamondback moth Plutella xylostella; assay: Injection into larvae of the diamondback moth (data not shown); type: in vivo; settings: injected into larvae of Plutella xylostella
[9] = system: cotton bollworms (H. armigera larvae); assay: Injection into cotton bollworm larvae; type: in vivo, Helicoverpa armigera
Description: We examined the effect of rAe1a on cotton bollworms (i.e., larvae of H. armigera) supplied by AgBiTech (Glenvale, QLD, Australia). […] Larvae were kept on artificial diet (AgBiTech) in standard 6-well plates and their mass was measured 24, 48 and 72 h after the injection.

[10] = system: hNaV1.5; assay: Two-electrode voltage-clamp of hNaV1.5 in Xenopus oocytes; type: cell-based; settings: hNaV1.5 + human β1 in Xenopus oocytes, 200 nM, n = 3–5
Description: as §3, §4

[11] = system: BgNaV1; assay: Two-electrode voltage-clamp of BgNaV1 in Xenopus oocytes; type: cell-based, Blattella germanica
Description: as §3, §4

[12] = system: fruit fly Drosophila melanogaster; assay: Screen of spider venoms / native peptide by injection into fruit flies; type: in vivo; settings: injected into D. melanogaster
Description: We used the fruit fly Drosophila melanogaster to rapidly screen spider venoms for insecticidal activity. […] Microinjection of venoms or toxins into D. melanogaster has the advantage that it requires only small volumes (50 nl per fly), which enables the study of scarce venoms from small venomous animals. Given the worldwide availability of Drosophila and the general sensitivity of flies towards spider toxins, this assay provides a convenient method for determining the insecticidal potency of venom compounds. However, as discussed below, it should not be used in isolation but rather as part of a taxonomically diverse screening protocol that aims to uncover potentially complex phyletic specificities.

[13] = system: fruit flies (Drosophila melanogaster); assay: Insecticidal activity by injection into fruit flies (PD50, LD50); type: in vivo; settings: D. melanogaster
Description: as §2
The effect on rAe1a on fruit flies was determined using a previously described method. rAe1a was dissolved in 100 mM ammonium acetate buffer (pH 6.1) and injected into the lateral thoracic region of adult female D. melanogaster using a glass capillary connected with silicone tubing to a 10 ml plastic syringe. The injection volume per fruit fly was calibrated to be 50 nl for each glass capillary. After injection, fruit flies were housed in 68-ml plastic tubes (containing a cotton piece soaked in 0.5% sucrose solution) in groups of 10 (all receiving the same treatment) and monitored for signs of paralysis or lethality at 3 and 24 h post-injection.

[14] = system: honeybees; settings: cited from earlier work
Description: as §1

[15] = system: wide range of insect pest species; settings: cited from earlier work
Description: as §1

[16] = system: insect voltage-gated calcium channels; settings: cited from earlier work

Row | Substance | lethality (in words) [1] | adverse effects (in words) [2] | selectivity for BgNaV1 over PaNaV1 (in words) [3] | effect on NaV channel currents in DUM neurons (in words) [4] | paralysis (in words) ([5]; L. cuprina) | PD50 (summary value) ([5]; sheep blowflies, approximate value in discussion) | activity against R. prolixus (in words) [6] | sensitivity of mutant channel to toxin (in words) [7] | lethality (in words) [8] | adverse effects / resistance (in words) [9] | effect on hNaV1.5 currents and gating (in words) [10] | inhibition of BgNaV1 currents (in words) [11] | lethality / toxicity (in words) [12] | paralysis / lethality (in words) [13] | LD50 ([6]; R. prolixus second instar nymphs, injection into thorax, 24 h after injection, n = 7–10 per dose, three experiments) | activity against honeybees (in words) [14] | lethality (in words) [15] | calcium channel inhibition (in words) [16]
1 | μ-DGTX-Dc1a | lethal | does not induce adverse effects | selectivity | – | – | – | – | – | – | – | – | – | – | – | – | – | – | –
2 | μ-theraphotoxin-Ae1a | – | – | – | failed to significantly affect sodium currents; also recorded: no significant affect | rapid but reversible paralysis; also recorded: reverses within 24 h | ~ 950 pmol/g | inactive | much less sensitive | lethal | no adverse effects; also recorded: resistant | completely inactive | potently inhibits | lethal | lethal; also recorded: irreversible paralysis leading to death; also recorded: highly sensitive | – | – | – | –
3 | ω-hexatoxin-Hv1a | – | – | – | – | – | – | highly susceptible | – | – | – | – | – | – | – | 147 ± 37 pmol/g | inactive | lethal | selective inhibitor
